Assay results from patent publication US7511061B2, “Triazoles as farnesyl transferase inhibitors” (Janssen Pharmaceutica N.V., priority 1999, dated 2009).

Experiments:
[1] = system: Respiratory Syncytial Virus; assay: In vitro screening for activity against Respiratory Syncytial Virus (MTT assay, protection against cytopathology); format: cell-based; conditions: for SI (selectivity index, CC50 divided by IC50): RSV, HeLa cells; for IC50: human respiratory syncytial virus, 168 h, RSV-infected HeLa cells, seven days after infection, MTT, read-out: IC50 (antiviral activity)
From the text: (§1) The percent protection against cytopathology caused by viruses (antiviral activity or IC50) achieved by tested compounds and their cytotoxicity (CC50) were both calculated from dose-response curves. The selectivity of the antiviral effect is represented by the selectivity index (SI), calculated by dividing the CC50 (cytotoxic dose for 50% of the cells) by the IC50 (antiviral activity for 50% of the cells).
(§2) Automated tetrazolium-based […] assays were used for determination of IC50 and CC50 of test compounds. Flat-bottom, 96-well plastic microtiter trays were filled with 180 μl of Eagle's Basal Medium, supplemented with 5% FCS (0% for FLU) and 20 mM Hepes buffer. Subsequently, stock solutions (7.8× final test concentration) of compounds were added in 45 μl volumes to a series of triplicate wells so as to allow simultaneous evaluation of their effects on virus- and mock-infected cells. Five five-fold dilutions were made directly in the microtiter trays using a robot system. Untreated virus controls, and HeLa cell controls were included in each test. Approximately 100 TCID50 of Respiratory Syncytial Virus was added to two of the three rows in a volume of 50 μl. The same volume of medium was added to the third row to measure the cytotoxicity of the compounds at the same concentrations as those used to measure the antiviral activity. After two hours of incubation, a suspension (4×10^5 cells/ml) of HeLa cells was added to all wells in a volume of 50 μl. The cultures were incubated at 37° C. in a 5% CO2 atmosphere. Seven days after infection the cytotoxicity and the antiviral activity was examined spectrophotometrically. To each well of the microtiter tray, 25 μl of a solution of MTT (3-(4,5-dimethylthiazol-2-yl)-2,5-diphenyltetrazolium bromide) was added. The trays were further incubated at 37° C. for 2 hours, after which the medium was removed from each cup. Solubilization of the formazan crystals was achieved by adding 100 μl 2-propanol. Complete dissolution of the formazan crystals were obtained after the trays have been placed on a plate shaker for 10 min. Finally, the absorbances were read in an eight-channel computer-controlled photometer (Multiskan MCC, Flow Laboratories) at two wavelengths (540 and 690 nm). The absorbance measured at 690 nm was automatically subtracted from the absorbance at 540 nm, so as to eliminate the effects of non-specific absorption.

[2] = system: HeLa cells; format: cell-based; conditions: human, 7 days
From the text: as §1, §2

SMILES | SI (selectivity index, CC50 divided by IC50) [1] | IC50 [1] [nM] | CC50 (cytotoxic dose for 50% of the cells) [2] [nM]
Cc1ccc(CCN(Cc2ccc3ccccc3n2)Cc2nncn2Cc2ccc(C#N)cc2)cc1 [compound 46] | 758 | 88.1 | 7060
COC(=O)c1ccc(Cn2cnnc2CN(CCc2ccc(Br)cc2)Cc2ccc3ccccc3n2)cc1 [compound 90] | 1988 | 25.9 | 7590
Brc1ccc(CCN(Cc2ccc3ccccc3n2)Cc2nncn2Cc2ccc(Br)cc2)cc1 [compound 92] | 147 | 150 | 6820
Fc1ccc(Cn2cnnc2CN(CCc2ccc(Br)cc2)Cc2ccc3ccccc3n2)cc1 [compound 97] | 322 | 80 | 7100
Brc1ccc(CCN(Cc2ccc3ccccc3n2)Cc2nncn2Cc2ccccc2)cc1 [compound 101] | 196 | 128 | 6890
N#Cc1cccc(Cn2cnnc2CN(CCc2ccc(Br)cc2)Cc2ccc3ccccc3n2)c1 [compound 102] | 793 | 82.4 | 7080
N#Cc1ccc(Cn2cnnc2CN(CCc2ccc(Cl)cc2Cl)Cc2ccc3ccccc3n2)cc1 [compound 114] | 337 | 118 | 6930
N#Cc1ccc(Cn2cnnc2CN(CCc2ccc(Br)cc2)Cc2ccc3cccc(O)c3n2)cc1 [compound 155] | 99 | 160 | 6800
Clc1ccc(Cn2cnnc2CN(CCc2ccc(Br)cc2)Cc2ccc3ccccc3n2)cc1 [compound 157] | 272 | 93.1 | 7030
